In patent US11377429B2, “Benzothia(di)azepine compounds and their use as bile acid modulators” (Albireo AB, priority 2020, dated 2022):

Tests used:
[1] = molecular target: T1, Human LBAT (Homo sapiens, UniProt Q14973); assay: LBAT (h/m) assay, human LBAT-overexpressing cells, 3H-taurocholic acid uptake; assay type: cell-based; conditions: read-out: hLBAT IC50
T1 construct: expressed in transfected cells; cultured under Geneticin selection
T1 sequence (Q14973 1-349): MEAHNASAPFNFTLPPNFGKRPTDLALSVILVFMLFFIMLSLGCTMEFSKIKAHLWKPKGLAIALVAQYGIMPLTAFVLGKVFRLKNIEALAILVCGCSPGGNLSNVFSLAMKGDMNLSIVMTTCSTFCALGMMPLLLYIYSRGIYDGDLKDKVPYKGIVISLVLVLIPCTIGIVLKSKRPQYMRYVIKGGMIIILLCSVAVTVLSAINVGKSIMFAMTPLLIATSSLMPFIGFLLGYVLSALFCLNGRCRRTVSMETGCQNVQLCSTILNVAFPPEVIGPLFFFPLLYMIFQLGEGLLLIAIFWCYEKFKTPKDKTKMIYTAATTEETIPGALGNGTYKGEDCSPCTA
Procedure: LBAT (h/m) Assay Protocol
20,000 cells (Human or Mouse LBAT-overexpressing cells) were seeded in 96-wells plate (Corning CLS3809) in 100 μL MEM-alpha medium (Gibco 12571-063) supplemented with 10% FBS (Gibco 10438026) containing Geneticin (Gibco 10131-027) (1 mg/mL) and incubated at 37° C. in 5% CO2 for 24 hours. After incubation, media was decanted from the wells and cells were washed two times with 300 μL of basal MEM-alpha medium (FBS-free). After decanting basal MEM-alpha medium each time, plates were tapped against paper towel to ensure maximum removal of residual media. For human LBAT, incubation mix was prepared by adding test inhibitor dilutions (3-fold serial dilution in DMSO (Sigma D2650), 10 points) in MEM-alpha (without FBS) containing 0.3 μM 3H-taurocholic acid (ARC ART-1368) and 7.5 μM cold taurocholic acid (Sigma T4009) (maintaining 0.2% final DMSO concentration). For mouse LBAT, incubation mix was prepared by adding test inhibitor dilutions (3-fold serial dilution in DMSO, 10 points) in MEM-alpha (without FBS) containing 0.3 μM 3H-taurocholic acid and 25 μM cold taurocholic acid maintaining 0.2% final DMSO concentration). 50 μL of incubation mix containing test inhibitors was then added to the wells (in duplicate) and the plates were incubated for 20 minutes in a CO2 incubator at 37° C. After incubation, the reaction was stopped by keeping the plates on ice water mix for 2-3 minutes and then the incubation mix was aspirated completely from the wells. The wells were washed two times with 250 μL of chilled unlabeled 1 mM taurocholic acid dissolved in HEPES (Gibco 15630080)-buffered (10 mM) HBSS (Gibco 14175079) (pH 7.4). The plates were tapped against a paper towel after every wash to ensure maximum removal of blocking buffer.
100 μL of MicroScint-20 (PerkinElmer 6013621) was added to the wells and kept overnight at room temperature before reading the plates in TopCount NXT™ Microplate Scintillation and Luminescence Counter from PerkinElmer under 3H Test protocol (set at 120 seconds reading time per well, with normal plate orientation).
(§1) Preparation of Test Compound Dilutions
(§2) All test compounds were provided in powder form at room temperature. 10 mM DMSO stocks of the test compounds were prepared, aliquoted and stored at −20° C. From the 10 mM DMSO stock of the compounds, a 3-fold serial dilution in DMSO was prepared to get a total of 10 dilutions of the test compounds. 0.5 μL of this dilution in DMSO was added to 250 μL of FBS-free basal media containing 3H-taurocholic acid and cold taurocholic acid to prepare the incubation mixture.

[2] = molecular target: T2, Human IBAT (Homo sapiens, UniProt Q12908); assay: IBAT (h/m) assay, human IBAT-overexpressing cells, 3H-taurocholic acid uptake; assay type: cell-based; conditions: read-out: hIBAT IC50
T2 construct: expressed in transfected cells; cultured under Puromycin selection
T2 sequence (Q12908 1-348): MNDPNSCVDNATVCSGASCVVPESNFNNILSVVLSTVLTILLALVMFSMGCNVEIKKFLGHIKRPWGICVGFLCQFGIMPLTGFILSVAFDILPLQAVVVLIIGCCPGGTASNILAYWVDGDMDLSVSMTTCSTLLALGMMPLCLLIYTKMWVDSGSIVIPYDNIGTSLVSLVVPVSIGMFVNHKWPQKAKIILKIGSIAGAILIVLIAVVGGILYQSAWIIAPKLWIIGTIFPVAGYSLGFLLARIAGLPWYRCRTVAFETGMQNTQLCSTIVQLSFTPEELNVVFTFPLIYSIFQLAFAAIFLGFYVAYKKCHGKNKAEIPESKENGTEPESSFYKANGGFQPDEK
Procedure: IBAT (h/m) Assay Protocol
10,000 cells (Human or Mouse IBAT-overexpressing cells) were seeded in 96-wells plate (Corning CLS3809) in 200 μL MEM-alpha medium (Gibco 12571-063) supplemented with 10% FBS (Gibco 10438026) containing Puromycin (Gibco A1113803) (10 μg/mL) and incubated at 37° C. in 5% CO2 for 48 hours. After incubation, media was decanted from the wells and cells were washed two times with 300 μL of basal MEM-alpha medium (FBS-free). After decanting basal MEM-alpha medium each time, plates were tapped against paper towel to ensure maximum removal of residual media. Test inhibitor dilutions (highest test concentration being 10 μM, 3-fold serial dilution, 10 points) prepared in DMSO (Sigma D2650) were added in incubation mix (maintaining 0.2% final DMSO concentration) containing 0.25 μM 3H-taurocholic acid (ARC ART-1368) and 5 μM of cold taurocholic acid (Sigma T4009). 50 μL of incubation mix containing test inhibitors was then added to the wells (in duplicate) and the plates were incubated for 20 minutes in a CO2 incubator at 37° C. After incubation, the reaction was stopped by keeping the plates on ice water mix for 2-3 minutes and then the incubation mix was aspirated completely from the wells. The wells were washed two times with 250 μL of chilled unlabeled 1 mM taurocholic acid dissolved in HEPES (Gibco 15630080)-buffered (10 mM) HBSS (Gibco 14175079) (pH 7.4). The plates were tapped against a paper towel after every wash to ensure maximum removal of blocking buffer. 100 μL of MicroScint-20 (PerkinElmer 6013621) was added to the wells and kept overnight at room temperature before reading the plates in TopCount NXT™ Microplate Scintillation and Luminescence Counter from PerkinElmer under 3H Test protocol (set at 120 seconds reading time per well).
as §1, §2

SMILES	IC50 [1] [µM]	IC50 [2] [µM]
CCC1(CC)CN(c2ccc(F)cc2)c2cc(SC)c(OCC(C)(C)C(=O)O)cc2S(=O)(=O)C1 [Example 13, 3-((3,3-diethyl-5-(4-fluorophenyl)-7-(methylthio)-1,1-dioxido-2,3,4,5-tetrahydro-1,5-benzothiazepin-8-yl)oxy)-2,2-dimethylpropanoic Acid]	0.021	0.256
CCCCC1(CC)CN(c2ccc(F)cc2)c2cc(SC)c(OCC3(C(=O)O)CC3)cc2S(=O)(=O)C1 (racemic) [Example 2, 1-(((3-butyl-3-ethyl-5-(4-fluorophenyl)-7-(methylthio)-1,1-dioxido-2,3,4,5-tetrahydro-1,5-benzothiazepin-8-yl)oxy)methyl)cyclopropane-1-carboxylic Acid]	0.32	0.011
CCCCC1(CCCC)CN(c2ccc(F)cc2)c2cc(SC)c(OCC(OC)C(=O)O)cc2S(=O)(=O)C1 (stereo not shown) [Example 9, 3-((3,3-dibutyl-5-(4-fluorophenyl)-7-(methylthio)-1,1-dioxido-2,3,4,5-tetrahydro-1,5-benzothiazepin-8-yl)oxy)-2-methoxypropanoic Acid]	5.41	0.01
CCC1(CC)CN(c2ccccc2)c2cc(SC)c(OCC(C)(F)C(=O)O)cc2S(=O)(=O)C1 (stereo not shown) [Example 6, 3-((3,3-diethyl-7-(methylthio)-1,1-dioxido-5-phenyl-2,3,4,5-tetrahydro-1,5-benzothiazepin-8-yl)oxy)-2-fluoro-2-methylpropanoic Acid]	0.083	0.338
CCCCC1(CC)CN(c2ccc(F)cc2)c2cc(SC)c(OCC3(C(=O)O)CC3)cc2S(=O)(=O)C1 (single isomer, unassigned) [3, enantiomer 2]	1.08	0.258
CCCCC1(CC)CN(c2ccc(F)cc2)c2cc(SC)c(OCC(C)(C)C(=O)O)cc2S(=O)(=O)C1 (racemic) [Example 4, 3-((3-butyl-3-ethyl-5-(4-fluorophenyl)-7-(methylthio)-1,1-dioxido-2,3,4,5-tetrahydro-1,5-benzothiazepin-8-yl)oxy)-2,2-dimethylpropanoic Acid]	0.173	0.037
CCCC1(CCC)CN(c2ccccc2)c2cc(SC)c(OCC(O)C(=O)O)cc2S(=O)(=O)C1 (stereo not shown) [Example 14, 2-Hydroxy-3-((7-(methylthio)-1,1-dioxido-5-phenyl-3,3-dipropyl-2,3,4,5-tetrahydro-1,5-benzothiazepin-8-yl)oxy)propanoic Acid]	3.68	0.03
CCCCC1(CCCC)CN(c2ccc(F)cc2)c2cc(SC)c(OCC(OC)C(=O)O)cc2S(=O)(=O)C1 (single isomer, unassigned) [10, enantiomer 1]	> 6.67	0.04
CCCCC1(C)CN(c2ccc(F)cc2)c2cc(SC)c(OCC(O)C(=O)O)cc2S(=O)(=O)C1 (single isomer, unassigned) [1, diastereomer 3]	0.921	0.061
CCCCC1(CC)CN(c2ccc(F)cc2)c2cc(SC)c(OCC(C)(C)C(=O)O)cc2S(=O)(=O)C1 (single isomer, unassigned) [5, enantiomer 2]	0.119	0.77
CCCCC1(C)CN(c2ccc(F)cc2)c2cc(SC)c(OCC(O)C(=O)O)cc2S(=O)(=O)C1 (single isomer, unassigned) [1, diastereomer 4]	1.05	0.122

Continued, values first:

IC50 [1] [µM]	IC50 [2] [µM]	SMILES
	0.01	CCCCC1(CC)CN(c2ccc(F)cc2)c2cc(SC)c(OCC(OCC)C(=O)O)cc2S(=O)(=O)C1 (stereo not shown) [Example 11, 3-((3-butyl-3-ethyl-5-(4-fluorophenyl)-7-(methylthio)-1,1-dioxido-2,3,4,5-tetrahydro-1,5-benzothiazepin-8-yl)oxy)-2-ethoxypropanoic Acid]
2.99	0.004	CCCCC1(CC)CN(c2ccc(F)cc2)c2cc(SC)c(OCC(OC)C(=O)O)cc2S(=O)(=O)C1 (stereo not shown) [Example 8, 3-((3-butyl-3-ethyl-5-(4-fluorophenyl)-7-(methylthio)-1,1-dioxido-2,3,4,5-tetrahydro-1,5-benzothiazepin-8-yl)oxy)-2-methoxypropanoic Acid]
> 2.22	0.004	CCCCC1(CCCC)CN(c2ccc(F)cc2)c2cc(SC)c(OCC(OC)C(=O)O)cc2S(=O)(=O)C1 (single isomer, unassigned) [10, enantiomer 2]
1.25	0.003	CCCCC1(CCCC)CN(c2ccccc2)c2cc(SC)c(OCC(OCC)C(=O)O)cc2S(=O)(=O)C1 (stereo not shown) [Example 12, 3-((3,3-dibutyl-7-(methylthio)-1,1-dioxido-5-phenyl-2,3,4,5-tetrahydro-1,5-benzothiazepin-8-yl)oxy)-2-ethoxypropanoic Acid]
2.02	0.002	CCCCC1(C)CN(c2ccc(F)cc2)c2cc(SC)c(OCC(O)C(=O)O)cc2S(=O)(=O)C1 (single isomer, unassigned) [1, diastereomer 2]
